The values that follow come from patent publication US20130331417A1, “INSECTICIDAL MIXTURES WITH IMPROVED PROPERTIES” (BAYER INTELLECTUAL PROPERTY GMBH, priority 2010, published 2013).

Data set [1] deals with Myzus persicae. The data set can be described thus: Myzus persicae test, oil seed rape seed treatment. The data set is classed as in vivo. The following applies: after 2 days. Here is the method: (§1) The expected efficacy of a given combination of two compounds is calculated as follows (see Colby, S .R., “Calculating Synergistic and antagonistic Responses of Herbicide Combinations”, Weeds 15, pp. 20-22, 1967):
(§2) If the observed insecticidal efficacy of the combination is higher than the one calculated as “E”, then the combination of the two compounds is more than additive, i.e., there is a synergistic effect.
(§3) If not mentioned otherwise, the crystalline modification I of 4-{[(6-chloropyrid-3-yl)methyl](methyl)amino} furan-2(5H)-one has been prepared as a water-dispersible or water-soluble powder in an active ingredient concentration of 70% (wt/wt) involving the following formulation auxiliaries, whereas the amount of auxiliaries sums up to 100 wt. %:
(§4) The auxiliaries were mixed with the appropriate amount of the crystalline modification I of 4-{[(6-chloropyrid-3-yl)methyl](methyl)amino} furan-2(5H)-one. There is no water or solvent added. To enable the dry mixture to stick on the seed, the seed were treated with a minimal amount of water, namely 30 μl for 2 g canola seeds, and 800 μl für 20 g cotton seeds.
Seeds of Oil seed rape were treated with the compounds or mixtures and sown. Ca. […]
After the specified period of time, the mortality in % is determined 100% means that all the aphids have been killed; 0% means that none of the aphids have been killed.

In data set [2] the test system is Aphis gossypii. Nature of the data set: Aphis gossypii test, cotton seed treatment. The data set is classed as in vivo. Here is the method: as §1, §2, §3, §4
Cotton seeds were treated with the compounds or mixtures and sown. 10 days after germination the plants were infested with a mixed population of the cotton aphid (Aphis gossypii). After the specified period of time, the mortality in % is determined 100% means that all the aphids have been killed; 0% means that none of the aphids have been killed.

Structures are written as SMILES.

On to `CN(Cc1ccc(Cl)nc1)C1=CC(=O)OC1` [4-{[(6-chloropyrid-3-yl)methyl](methyl)amino} furan-2(5H)-one], for which the Mortality worked out at 40% in data set [1] (0.025 mg ai/seed, infested ca. 35 days after germination); 60% in data set [2] (after 2 days (head above the row), 0.01 mg ai/seed); 35% in data set [2] (after 2 days, 0.025 mg ai/seed, infested 10 days after germination).

`O=[N+]([O-])NC1=NCCN1Cc1ccc(Cl)nc1` [Imidacloprid]: in data set [2] (after 3 days, 0.01 mg ai/seed), the Mortality was 0%.

For the molecule `CCOC(=O)OC1=C(c2cc(C)ccc2C)C(=O)N[C@]12CC[C@@H](OC)CC2` [Spirotetramat], in data set [2] (after 2 days, 5 mg ai/seed), the Mortality amounted to 0%.

With `C/C(=N\C#N)N(C)Cc1ccc(Cl)nc1` [Acetamiprid], the Mortality in data set [1] (1 mg ai/seed) is 0%.
